Source: the supplement of paper PMC11628255, “Interference of metal ions on the bioluminescent signal of firefly, Renilla, and NanoLuc luciferases in high-throughput screening assays” (Frontiers in Chemistry, 2024)
± gives the standard deviation of the averaged measurements.

Assays:
Assay in all cases: normalised percent inhibition of luminescence (vs positive and negative controls); higher = stronger inhibition
[1] = test system: NanoLuc luciferase (NLuc)
Method: (§1)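 Concentration-response (>=11 concentrations) of metal salts on purified FLuc, NLuc or RLuc luminescence in screening (SC) or 100 mM HEPES (H) buffer; salt pre-incubated with enzyme 10 min at RT, read 10 min after substrate. Normalised percent inhibition vs plate positive (PTC-124, isradipine, BTS) and DMSO negative controls; triplicate wells.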

[2] = test system: Renilla luciferase (RLuc)
Method: as §1

[3] = test system: firefly luciferase (FLuc)
Method: as §1

O=[N+]([O-])[O-].O=[N+]([O-])[O-].[Pb+2] [lead(II) nitrate]
normalised percent inhibition [%]
Conditions	[1]	[2]	[3]
metal salt concentration 0.0001 mM, 100 mM HEPES buffer	–	–	-33.9 ± 8.6
metal salt concentration 0.00025 mM, 100 mM HEPES buffer	–	–	-19.7 ± 5.7
metal salt concentration 0.0005 mM, 100 mM HEPES buffer	–	–	-15.9 ± 13
metal salt concentration 0.001 mM, 100 mM HEPES buffer	–	–	-1.03 ± 17
metal salt concentration 0.002 mM, screening conditions buffer	-1.02 ± 11	-20.9 ± 12	–
metal salt concentration 0.005 mM, screening conditions buffer	-3.52 ± 6.5	-16.2 ± 4.1	–
metal salt concentration 0.01 mM, screening conditions buffer	-2.27 ± 14	-2.6 ± 1.9	–
metal salt concentration 0.02 mM, screening conditions buffer	-3.22 ± 1.7	-5.61 ± 4.4	–
metal salt concentration 0.025 mM, 100 mM HEPES buffer	–	–	88.9 ± 6.3
metal salt concentration 0.05 mM, 100 mM HEPES buffer	–	–	94.75 ± 0.83
metal salt concentration 0.05 mM, screening conditions buffer	-4.15 ± 10	-11.8 ± 16	–
metal salt concentration 0.1 mM, 100 mM HEPES buffer	–	–	96.7 ± 1.3
metal salt concentration 0.1 mM, screening conditions buffer	-7.45 ± 3.5	-5.46 ± 3.8	–
metal salt concentration 0.2 mM, screening conditions buffer	0.428 ± 2.1	-6.41 ± 12	–
metal salt concentration 0.5 mM, 100 mM HEPES buffer	–	–	100.1 ± 0.72
metal salt concentration 0.5 mM, screening conditions buffer	15.7 ± 8.1	-3.99 ± 7.6	–
metal salt concentration 1 mM, 100 mM HEPES buffer	–	–	100.4 ± 0.27
metal salt concentration 1 mM, screening conditions buffer	11.5 ± 4.2	2.9 ± 6.8	–
metal salt concentration 2.5 mM, 100 mM HEPES buffer	–	–	100.5 ± 0.16
metal salt concentration 2.5 mM, screening conditions buffer	52 ± 1.8	53.3 ± 7.9	–
metal salt concentration 5 mM, 100 mM HEPES buffer	–	–	99.63 ± 0.56
metal salt concentration 5 mM, screening conditions buffer	129 ± 28	94.9 ± 7.4	–

O=[N+]([O-])[O-].O=[N+]([O-])[O-].[Cu+2] [copper(II) nitrate]
normalised percent inhibition [%]
Conditions	[1]	[2]	[3]
metal salt concentration 0.0001 mM, 100 mM HEPES buffer	-0.372 ± 3	-51.9 ± 23	87.3 ± 0.68
metal salt concentration 0.00025 mM, 100 mM HEPES buffer	-0.297 ± 4.1	-48.5 ± 24	98.97 ± 0.94
metal salt concentration 0.0005 mM, 100 mM HEPES buffer	1.75 ± 3.8	-45.4 ± 25	100.2 ± 0.86
metal salt concentration 0.001 mM, 100 mM HEPES buffer	0.0805 ± 1.8	-40 ± 21	100.5 ± 0.32
metal salt concentration 0.002 mM, screening conditions buffer	14.1 ± 1.5	-3.55 ± 2.2	–
metal salt concentration 0.005 mM, screening conditions buffer	18.8 ± 0.91	-13.6 ± 6.9	–
metal salt concentration 0.01 mM, 100 mM HEPES buffer	7.71 ± 5.1	62.8 ± 10	–
metal salt concentration 0.01 mM, screening conditions buffer	65.1 ± 8.6	-1.01 ± 9.8	–
metal salt concentration 0.02 mM, screening conditions buffer	133 ± 1.4	-23.7 ± 5.4	–
metal salt concentration 0.025 mM, 100 mM HEPES buffer	59.8 ± 10	105 ± 1.8	100.3 ± 0.68
metal salt concentration 0.05 mM, 100 mM HEPES buffer	95.4 ± 2.7	106 ± 1.2	100.6 ± 0.19
metal salt concentration 0.05 mM, screening conditions buffer	135.6 ± 0.57	-13 ± 2.6	–
metal salt concentration 0.1 mM, 100 mM HEPES buffer	99.6 ± 1.4	106.6 ± 0.68	100.5 ± 0.56
metal salt concentration 0.1 mM, screening conditions buffer	136.5 ± 0.29	-8.47 ± 7.3	–
metal salt concentration 0.2 mM, screening conditions buffer	136.6 ± 0.2	105.7 ± 0.96	–
metal salt concentration 0.5 mM, 100 mM HEPES buffer	101.5 ± 0.56	105 ± 2.1	100.5 ± 0.32
metal salt concentration 0.5 mM, screening conditions buffer	137.2 ± 0.16	107	–
metal salt concentration 1 mM, 100 mM HEPES buffer	101.9 ± 0.15	–	100.4 ± 0.75
metal salt concentration 1 mM, screening conditions buffer	137.4 ± 0.17	105.8 ± 0.24	–
metal salt concentration 2.5 mM, 100 mM HEPES buffer	101 ± 2.5	–	100.4 ± 0.37
metal salt concentration 2.5 mM, screening conditions buffer	137.3 ± 0.23	105.7 ± 0.6	–
metal salt concentration 5 mM, 100 mM HEPES buffer	102.11 ± 0.092	–	99.95 ± 0.94
metal salt concentration 5 mM, screening conditions buffer	137.49 ± 0.063	106.3 ± 0.24	–

[Cl][Sn][Cl] [tin(II) chloride]
normalised percent inhibition [%]
Conditions	[1]	[2]	[3]
metal salt concentration 0.0001 mM, 100 mM HEPES buffer	-1.04 ± 6.1	-43.6 ± 17	-37.6 ± 15
metal salt concentration 0.00025 mM, 100 mM HEPES buffer	-2.95 ± 2.7	-34 ± 13	-36.8 ± 6.8
metal salt concentration 0.0005 mM, 100 mM HEPES buffer	-1.03 ± 1.3	-29.8 ± 5.5	-25.8 ± 14
metal salt concentration 0.001 mM, 100 mM HEPES buffer	-2.16 ± 1.9	-28.6 ± 18	-45.1 ± 15
metal salt concentration 0.002 mM, screening conditions buffer	1.6 ± 4.3	2.49 ± 5.6	-6.84 ± 5.6
metal salt concentration 0.005 mM, screening conditions buffer	4.64 ± 7.8	-3.55 ± 14	-10.8 ± 7.7
metal salt concentration 0.01 mM, screening conditions buffer	3.42 ± 6.3	13.4 ± 4.1	6.44 ± 2.8
metal salt concentration 0.02 mM, screening conditions buffer	-0.105 ± 7.6	-6.49 ± 5.1	1.32 ± 6
metal salt concentration 0.025 mM, 100 mM HEPES buffer	-3.24 ± 3.1	-15.8 ± 19	-26.1 ± 9.4
metal salt concentration 0.05 mM, 100 mM HEPES buffer	6.37 ± 5.1	-15 ± 8.5	-13.9 ± 8.4
metal salt concentration 0.05 mM, screening conditions buffer	-1.81 ± 0.79	-5.21 ± 12	19.1 ± 12
metal salt concentration 0.1 mM, 100 mM HEPES buffer	-5.15 ± 2.1	-35 ± 10	-9.51 ± 17
metal salt concentration 0.1 mM, screening conditions buffer	1.62 ± 2.5	-1.32 ± 8.7	56.5 ± 6.6
metal salt concentration 0.2 mM, screening conditions buffer	6.52 ± 2.1	-3.23 ± 5	99.33 ± 0.51
metal salt concentration 0.5 mM, 100 mM HEPES buffer	-1.5 ± 2.9	-38.9 ± 24	11.7 ± 4.4
metal salt concentration 0.5 mM, screening conditions buffer	8.42 ± 5.9	-6.09 ± 2.5	100.6 ± 0.52
metal salt concentration 1 mM, 100 mM HEPES buffer	-2.37 ± 3.8	-53 ± 25	37.6 ± 7.7
metal salt concentration 1 mM, screening conditions buffer	20.2 ± 2.5	-5.29 ± 9	100.2 ± 0.65
metal salt concentration 2.5 mM, 100 mM HEPES buffer	-3.02 ± 4.8	-45.3 ± 22	63.9 ± 6.3
metal salt concentration 2.5 mM, screening conditions buffer	93.83 ± 0.43	-6.8 ± 10	100.4 ± 0.65
metal salt concentration 5 mM, 100 mM HEPES buffer	11.3 ± 8.9	79.9 ± 17	100.7 ± 0.19
metal salt concentration 5 mM, screening conditions buffer	137.11 ± 0.064	103 ± 2.7	100.5 ± 0.69
